Test results from patent US11667602B2, “Compounds and their use” (AstraZeneca AB, priority 2020, dated 2023).
pEC50: −log10 of the molar value. Converted amounts (≈) assume the structure as drawn.

How the values were obtained:
[1] = Human Plasma Protein Binding (Test B); assay type: in vitro ADME; details: fraction unbound (fu)
Experimental: Human Plasma Protein Binding (Test B)
The assay was conducted according to the Human Plasma Protein Binding Assay described in pages 167-170 of Wernevik, J. et al., “A Fully Integrated Assay Panel for Early Drug Metabolism and Pharmacokinetics Profiling”, Assay and Drug Development Technologies, 2020, 18(4), 157-179. Data are reported in Table 36 as fraction unbound (fu) (% free). Where the assay was run multiple times for the same compound, the arithmetic mean is reported.

[2] = Human Liver Microsomal Stability (Test C); assay type: in vitro ADME; details: human, liver microsomes
Experimental: Human Liver Microsomal Stability (Test C)
The assay was conducted according to the Human Liver Microsome Stability Assay described in pages 170-174 of Wernevik, J. et al., “A Fully Integrated Assay Panel for Early Drug Metabolism and Pharmacokinetics Profiling”, Assay and Drug Development Technologies, 2020, 18(4), 157-179. Data are reported in Table 36 as CLint (μl/min/mg protein). Where the assay was run multiple times for the same compound, the arithmetic mean is reported.

[3] = Rat Hepatocyte Stability (Test E); assay type: in vitro ADME; details: rat, hepatocytes, geometric mean if run multiple times
Experimental: Rat Hepatocyte Stability (Test E)
The assay was conducted according to the Rat Hepatocyte Stability Assay described in pages 170-174 of Wernevik, J. et al., “A Fully Integrated Assay Panel for Early Drug Metabolism and Pharmacokinetics Profiling”, Assay and Drug Development Technologies, 2020, 18(4), 157-179. Data are reported in Table 36 as mean Clint(μl/min/10^6 cells). Where the assay was run multiple times for the same compound, the geometric mean is reported.

Solubility (Test F) = assay type: physicochemical; details: arithmetic mean if run multiple times
Experimental: The assay was conducted according to the Solubility Assay described in pages 164-167 of Wernevik, J. et al., “A Fully Integrated Assay Panel for Early Drug Metabolism and Pharmacokinetics Profiling”, Assay and Drug Development Technologies, 2020, 18(4), 157-179. Data are reported in Table 36 as solubility ([…]. Where the assay was run multiple times for the same compound, the arithmetic mean is reported.

human RXFP1 = target: T1, human RXFP1 (Homo sapiens, UniProt Q9HBX9); test: RXFP1 Hu cAMP (Test A); assay type: cell-based; design: expressed in transfected cells; host or cells: Jump-In T-REx CHO-K1 cells (ThermoFisher), induced with 10 ng/ml doxycycline for 24 h; details: RXFP1 Hu cAMP; for pEC50: read-out: Test A EC50
T1 sequence (Q9HBX9 1-757): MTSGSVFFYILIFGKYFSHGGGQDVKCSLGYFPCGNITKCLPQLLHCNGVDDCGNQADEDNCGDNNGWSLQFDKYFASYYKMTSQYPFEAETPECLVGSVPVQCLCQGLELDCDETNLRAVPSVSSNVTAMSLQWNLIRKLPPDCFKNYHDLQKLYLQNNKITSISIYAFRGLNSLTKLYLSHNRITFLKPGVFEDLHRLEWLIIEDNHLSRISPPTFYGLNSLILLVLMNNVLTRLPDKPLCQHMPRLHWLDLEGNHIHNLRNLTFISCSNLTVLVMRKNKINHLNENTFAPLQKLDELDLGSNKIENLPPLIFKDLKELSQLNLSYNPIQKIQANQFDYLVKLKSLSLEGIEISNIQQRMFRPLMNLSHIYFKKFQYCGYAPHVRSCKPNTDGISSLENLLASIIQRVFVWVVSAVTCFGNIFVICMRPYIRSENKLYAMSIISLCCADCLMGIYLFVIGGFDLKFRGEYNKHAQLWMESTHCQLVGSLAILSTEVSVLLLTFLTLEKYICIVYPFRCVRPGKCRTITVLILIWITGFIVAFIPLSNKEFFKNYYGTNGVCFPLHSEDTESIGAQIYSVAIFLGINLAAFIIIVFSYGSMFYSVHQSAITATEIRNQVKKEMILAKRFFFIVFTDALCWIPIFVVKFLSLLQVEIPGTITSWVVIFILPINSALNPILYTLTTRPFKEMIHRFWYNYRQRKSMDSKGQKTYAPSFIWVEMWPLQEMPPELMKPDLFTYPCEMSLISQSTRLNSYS
Method in brief: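 CHO-K1 (Jump-In T-REx), RXFP1 induced w/ 10 ng/ml doxycycline 24 h, cryopreserved. 0.5 mM IBMX final. cAMP by HTRF, 2 h RT, std curve.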

| SMILES | Test B Human Plasma Protein Binding (% free) [1] | microsomal CLint [2] | hepatocyte CLint [3] | solubility (Solubility (Test F)) | Test A Sinf (human RXFP1) | pEC50 (human RXFP1) |
| --- | --- | --- | --- | --- | --- | --- |
| COc1cc(F)c(O[C@H]2CC[C@@H](C(=O)O)CC2)cc1C(=O)N[C@@H]1[C@H]2CC[C@H](C2)[C@@H]1C(=O)Nc1cccc(CF)c1 [Example 11, (1S,4s)-4-(2-Fluoro-5-(((1S,2R,3S,4R)-3-((3-(fluoromethyl)phenyl)carbamoyl)bicyclo[2.2.1]heptan-2-yl)carbamoyl)-4-methoxyphenoxy)cyclohexane-1-carboxylic acid] | 3.3 % free | 36 µL/min/mg | > 300 µL/min/1e6 cells | > 1000 µM | 104% |  |
| COc1cc(F)c(O[C@H]2CC[C@@H](C(=O)O)CC2)cc1C(=O)N[C@@H]1[C@H]2CC[C@H](C2)[C@@H]1C(=O)Nc1ccnc(C(F)(F)F)c1 [Example 12, (1S,4s)-4-(2-Fluoro-4-methoxy-5-(((1S,2R,3S,4R)-3-((2-(trifluoromethyl)pyridin-4-yl)carbamoyl)bicyclo[2.2.1]heptan-2-yl)carbamoyl)phenoxy)cyclohexane-1-carboxylic acid] | 2.7 % free | 23 µL/min/mg | 64 µL/min/1e6 cells | 850 µM (≈ 505 µg/mL) | 107% | 6.39 |
| COc1cc(F)c(O[C@H]2CC[C@@H](C(=O)O)CC2)cc1C(=O)N[C@@H]1[C@H]2CC[C@H](C2)[C@@H]1C(=O)Nc1ccc(C(F)(F)F)cn1 [Example 13, (1S,4s)-4-(2-Fluoro-4-methoxy-5-(((1S,2R,3S,4R)-3-((5-(trifluoromethyl)pyridin-2-yl)carbamoyl)bicyclo[2.2.1]heptan-2-yl)carbamoyl)phenoxy)cyclohexane-1-carboxylic acid] | 3.1 % free | 24 µL/min/mg | 10 µL/min/1e6 cells | 520 µM (≈ 309 µg/mL) | 115% | 5.20 |
| COc1cc(F)c(O[C@H]2CC[C@@H](C(=O)O)CC2)cc1C(=O)N[C@@H]1[C@H]2CC[C@H](C2)[C@@H]1C(=O)Nc1cc(C(F)(F)F)ccn1 [Example 14, (1S,4s)-4-(2-Fluoro-4-methoxy-5-(((1S,2R,3S,4R)-3-((4-(trifluoromethyl)pyridin-2-yl)carbamoyl)bicyclo[2.2.1]heptan-2-yl)carbamoyl)phenoxy)cyclohexane-1-carboxylic acid] | 1.8 % free | 18 µL/min/mg | 27 µL/min/1e6 cells | 770 µM (≈ 457 µg/mL) | 83% | 6.29 |
| COc1cc(F)c(O[C@H]2CC[C@@H](C(=O)O)CC2)cc1C(=O)N[C@@H]1[C@H]2CC[C@H](C2)[C@@H]1C(=O)Nc1ccc(S(=O)(=O)C(F)(F)F)cc1 [Example 15, (1S,4s)-4-(2-Fluoro-4-methoxy-5-(((1S,2R,3S,4R)-3-((4-((trifluoromethyl)sulfonyl)phenyl)carbamoyl)bicyclo[2.2.1]heptan-2-yl)carbamoyl)phenoxy)cyclohexane-1-carboxylic acid] | 1.3 % free | 14 µL/min/mg | 13 µL/min/1e6 cells | 390 µM (≈ 256 µg/mL) | 94% | 6.38 |
| COc1cc(F)c(O[C@H]2CC[C@@H](C(=O)O)CC2)cc1C(=O)N[C@@H]1[C@H]2CC[C@H](C2)[C@@H]1C(=O)Nc1c(F)c(F)c(F)c(F)c1F [Example 16, (1S,4s)-4-(2-Fluoro-4-methoxy-5-(((1S,2R,3S,4R)-3-((perfluorophenyl)carbamoyl)bicyclo[2.2.1]heptan-2-yl)carbamoyl)phenoxy)cyclohexane-1-carboxylic acid] | 2.2 % free | 9.3 µL/min/mg | 49 µL/min/1e6 cells | 330 µM (≈ 203 µg/mL) | 93% | 6.48 |
| COc1cc(F)c(O[C@H]2CC[C@@H](C(=O)O)CC2)cc1C(=O)N[C@@H]1[C@H]2CC[C@H](C2)[C@@H]1C(=O)Nc1cc(F)cc(S(F)(F)(F)(F)F)c1 [Example 17, (1S,4s)-4-(2-Fluoro-5-(((1S,2R,3S,4R)-3-((3-fluoro-5-(pentafluoro-6-sulfaneyl)phenyl)carbamoyl)bicyclo[2.2.1]heptan-2-yl)carbamoyl)-4-methoxyphenoxy)cyclohexane-1-carboxylic acid] | <0.21 % free | 20 µL/min/mg | 11 µL/min/1e6 cells | 150 µM (≈ 100 µg/mL) | 110% | 7.32 |
| COc1cc(F)c(O[C@H]2CC[C@@H](C(=O)O)CC2)cc1C(=O)N[C@@H]1[C@H]2CC[C@H](C2)[C@@H]1C(=O)Nc1cccc(OC(F)(F)F)c1F [Example 18] | 1.2 % free | 27 µL/min/mg | 49 µL/min/1e6 cells | 400 µM (≈ 251 µg/mL) | 105% |  |
| COc1cc(F)c(O[C@H]2CC[C@@H](C(=O)O)CC2)cc1C(=O)N[C@@H]1[C@H]2CC[C@H](C2)[C@@H]1C(=O)Nc1ccc(C)c(C#N)c1 [Example 19] | 2.3 % free | 17 µL/min/mg | 93 µL/min/1e6 cells | 630 µM (≈ 355 µg/mL) | 97% | 6.33 |
| COc1cc(F)c(O[C@H]2CC[C@@H](C(=O)O)CC2)cc1C(=O)N[C@@H]1[C@H]2CC[C@H](C2)[C@@H]1C(=O)Nc1cccc(OC(F)(F)F)c1 [Example 20] | 0.74 % free | 28 µL/min/mg | 63 µL/min/1e6 cells | 980 µM (≈ 596 µg/mL) | 102% | 7.32 |
| COc1cc(F)c(O[C@H]2CC[C@@H](C(=O)O)CC2)cc1C(=O)N[C@@H]1[C@H]2CC[C@H](C2)[C@@H]1C(=O)Nc1ccc(F)c(OC(F)(F)F)c1 [Example 21] | 0.55 % free | 39 µL/min/mg | 28 µL/min/1e6 cells | 850 µM (≈ 533 µg/mL) | 110% |  |
| COc1cc(F)c(O[C@H]2CC[C@@H](C(=O)O)CC2)cc1C(=O)N[C@@H]1[C@H]2CC[C@H](C2)[C@@H]1C(=O)Nc1cc(C(F)(F)F)cc(C(F)(F)F)c1 [Example 22, (1S,4s)-4-(5-(((1S,2R,3S,4R)-3-((3,5-Bis(trifluoromethyl)phenyl)carbamoyl)bicyclo[2.2.1]heptan-2-yl)carbamoyl)-2-fluoro-4-methoxyphenoxy)cyclohexane-1-carboxylic acid] | 0.23 % free | 23 µL/min/mg | 14 µL/min/1e6 cells | 51 µM (≈ 33.7 µg/mL) | 130% |  |
| COc1cc(F)c(O[C@H]2CC[C@@H](C(=O)O)CC2)cc1C(=O)N[C@@H]1[C@H]2CC[C@H](C2)[C@@H]1C(=O)Nc1ccc(Br)c(C(F)(F)F)c1 [Example 23] | 0.24 % free | 26 µL/min/mg | 19 µL/min/1e6 cells | 8.7 µM (≈ 5.84 µg/mL) | 109% | 7.70 |
| COc1cc(F)c(O[C@H]2CC[C@@H](C(=O)O)CC2)cc1C(=O)N[C@@H]1[C@H]2CC[C@H](C2)[C@@H]1C(=O)Nc1cccc(C(F)(F)F)c1C [Example 24] | 1.8 % free | 29 µL/min/mg | 45 µL/min/1e6 cells | 590 µM (≈ 358 µg/mL) | 97% | 6.00 |
